In patent US4678750A, “Method and compositions for use in the treatment of fireblight” (Microlife Technics, Inc., priority 1984, dated 1987):

System: depolymerase from phage-infected E. amylovora NCPPB595
Test: Effect of chemical agents on depolymerase activity (galactose release from polysaccharide)
Format: biochemical, phage ERA103 / Erwinia amylovora NCPPB595
Settings: for Effect of agent on depolymerase activity (in words): Table 2; for Activity % Control: control assay without inhibitors
Procedure: Depolymerase activity was assayed by following the release of galactose from the polysaccharide substrate according to the method of Fairbridge (Fairbridge,R. A., et al. Biochem. J. 49:423-427 (1951)). The reaction mixture consisted of the following: 100 microliters of the appropriate enzyme solution and 100 microliters of polysaccharide (10 mg/ml) suspended in 0.01M citrate buffer, pH 6.0 containing 0.01M 2-mercaptoethanol. One unit of enzyme was defined as the amount of enzyme required to produce 1 micromole of galactose per minute under standard assay conditions.
Substrate Preparation. Polysaccharide was prepared from uninfected cultures of Erwinia amylovora NCPPB595 cultivated on sheets of cellophane overlaying Tryptic Soy agar, as decribed by Liu (Liu, P.V., et al., J. Infect. Dis. 108:218-228 (1961)). The polysaccharide was extracted from the slime layer according to the method of Liu.
The effect of various chemical agents on depolymerase activity can be seen in Table 2.

[1] = agent 10.0 millimoles per liter

Compound | Effect of agent on depolymerase activity (in words) | Activity % Control (agent 0.1 millimoles per liter) [% Control] | Activity % Control (agent 1.0 millimoles per liter) [% Control] | Activity % Control [1] [% Control]
OCCS [2-Mercaptoethanol] | enhanced depolymerase activity substantially | 122 | 155 | 168
Oc1cccc2cccnc12 [8-hydroxyquinoline] | insensitive | – | – | –
OC(CS)C(O)CS (centres unmarked) [Dithiothreitol, 1,4 dimercapto-2,3-butanediol] | enhanced depolymerase activity substantially | 122 | 138 | 258
O=C(O)CI [Iodoacetate] | no efect on enzymatic activity | 100 | 100 | 100
CCN1C(=O)C=CC1=O [N--ethylmaleimide, N-ethylmaleimide] | no efect on enzymatic activity | 100 | 100 | 100
[N-]=[N+]=[N-] [Sodium azide] | insensitive | 100 | 100 | 100
O=C(O)c1cc[c]([Hg][Cl])cc1 [p-Chloromercuribenzoate] | inhibited the enzyme at all concentrations tested | 0 | 0 | 0
ethylene-di-(o-hydroxyphenylacetate) | insensitive | 100 | 100 | 100
